Assay [1] relates to SW480 colon cancer cells. Kind of assay: Cell viability assay (CellTiter-Blue) in SW480 colon cancer cells. Type of assay: cell-based, human. To be noted: Homo sapiens; for EC50: 96 h, four days, CellTiter-Blue; for inhibition at 10 µM: given for EC50 of >10 μM, read-out: percent inhibition at 10 μM. The essentials: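 Four-day viability readout in SW480 cells: compound at 0.0045–10 μM (1:3 series), DMSO controls in eight replicates, CellTiter-Blue fluorescence after ~3 h. Values are regression-derived EC50s, or percent inhibition at 10 μM when EC50 exceeds 10 μM.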

For assay [2], the system named is primary human fibroblasts derived from IPF patients (LL29 cells). Kind of assay: Inhibition of the fibrotic process: αSMA staining in TGF-β1 treated LL29 fibroblasts. To be noted: Homo sapiens, Fibroblast, 96 h, TGF-β1 20 ng/mL, 4 days, % αSMA positive cells. Type of assay: cell-based. The essentials: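 IPF patient-derived LL29 fibroblasts in 1% FBS medium got compound (11-point, 10 μM to 1.87 nM, 0.1% DMSO) plus TGF-β1 20 ng/mL, 4 days at 37° C. αSMA-positive live cells (SYTOX-excluded) were imaged, normalized to TGF-β1 controls and fitted for EC50; % inhibition at 10 μM given when EC50 >10 μM.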

In assay [3] the test system is Wnt activity (Sp5-Luc reporter gene, SW480 colon carcinoma cells). Kind of assay: Screening assay for Wnt activity: Sp5-Luc reporter gene assay in SW480 cells. Type of assay: cell-based, human. Particulars: Homo sapiens, overnight incubation. The essentials:
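SW480 cells stably transduced with a luciferase reporter driven by an Sp5 promoter of eight TCF/LEF sites were plated at 4,000 cells/well in 1% FBS medium. They were exposed overnight at 37° C to a 10-point 1:3 dilution series from 10 μM (0.1% DMSO). Luminescence was normalized to DMSO for four-parameter EC50, or percent inhibition at 10 μM.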

Take `CN(C)Cc1cncc(-c2cnc3[nH]nc(-c4cc5c(-c6cc(F)cc(CNS(C)(=O)=O)c6)cccc5[nH]4)c3c2)c1` [Compound 463, N-(3-(2-(5-(5-((Dimethylamino)methyl)pyridin-3-yl)-1H-pyrazolo[3,4-b]pyridin-3-yl)-1H-indol-4-yl)-5-fluorobenzyl)methane sulfonamide]: the half-maximal effective concentration (EC50) was found to be 1070 nM in assay [1], 2030 nM in assay [2] and 489 nM in assay [3].
Regarding `CS(=O)(=O)NCc1cc(F)cc(-c2cccc3[nH]c(-c4n[nH]c5ncc(-c6ccccn6)cc45)cc23)c1` [Compound 478, N-(3-Fluoro-5-(2-(5-(pyridin-2-yl)-1H-pyrazolo[3,4-b]pyridin-3-yl)-1H-indol-4-yl)benzyl)methanesulfonamide], the EC50 was more than 10000 nM in assay [1], 2420 nM in assay [2] and 3880 nM in assay [3]. In addition, the inhibition at 10 µM in assay [1] came to 22.6%.
The like results for `O=C(Nc1cncc(-c2cnc3[nH]nc(-c4cc5c(N6CCCCC6)cccc5[nH]4)c3c2)c1)c1ccccc1` [Compound 155, N-(5-(3-(4-(Piperidin-1-yl)-1H-indol-2-yl)-1H-pyrazolo[3,4-b]pyridin-5-yl)pyridin-3-yl)benzamide] were, in that order, more than 10000 nM, 5170 nM, 3470 nM and 31%.

Source of the values: patent US20180214428A1, “3-(1H-INDOL-2-YL)-1H-PYRAZOLO[3,4-B]PYRIDINES AND THERAPEUTIC USES THEREOF” (Samumed, LLC, priority 2015, published 2018).
